“And” between values parts separate entries of the source, which are not always exact repeats. Equal values may be shown once.
Columns and labels:
[1] = test system: patients with Severe Refractory Chronic Hand Eczema (CHE); test: Clinical trial simulation (longitudinal dose response model): time from initial dose to onset of effect; type: in vivo, human; conditions: age 75 yr; 30 mg
Protocol: (§1) In reviewing the data to make these determinations, all available PGA scores observed (not including scores derived from missing data such as last observation carried forward (LOCF) including those at baseline, every 4 weeks during treatment, and every 4 to 8 weeks after cessation of treatment for up to 72 weeks post treatment from the various clinical trials were used to develop a longitudinal dose response model.
(§2) In clinical studies, efficacy was measured using PGA score and modified total lesion signs and symptoms (mTLSS) at various times during and post treatment. PGA scores over time were chosen for this analysis because PGA scores were the primary endpoint in the Phase III studies and were collected at more time points than the mTLSS. The PGA was graded according to 5 point scale (clear, almost clear, mild disease, moderate disease, severe disease). The mTLSS severity score was graded 0 to 3 for 7 parameters.
A >2 weeks time to onset is considered clinically relevant.

[2] = test system: patients with Severe Refractory Chronic Hand Eczema (CHE); test: Clinical trial simulation (longitudinal dose response model): no relapse (PGA ≠ 5) by 6 months post treatment; type: in vivo, human; conditions: for Proportion of Responders Who Did Not Relapse (PGA ≠ 5) 6 months Post Treatment / Proportion of Subjects with PGA = 1 at end of treatment who did not relapse (PGA ≠ 5) 6 Months Post Treatment / Proportion of Subjects with PGA = 2 at the end of treatment who did not relapse (PGA ≠ 5) 6 Months Post Treatment / Proportion of Subjects with PGA = 3 at the end of treatment who did not relapse (PGA ≠ 5) 6 Months Post Treatment / Proportion of Subjects with PGA = 1 Who Did Not Relapse (PGA ≠ 5) 6 Months Post Treatment / Proportion of Subjects with PGA = 2 Who Did Not Relapse (PGA ≠ 5) 6 Months Post Treatment / Proportion of Subjects with PGA = 3 Who Did Not Relapse (PGA ≠ 5) 6 Months Post Treatment: 30 mg
Protocol: as §1, §2
For the Physician Global Assessment (PGA), a general description of CHE severity, which is a well recognized scale is shown below in Table 7 for clarification purposes.

## CC1=C(/C=C/C(C)=C\C=C\C(C)=C\C(=O)O)C(C)(C)CCC1 [Alitretinoin, 9-cis isomer of retinoic acid (RA)]
[1]
  Time to Onset of Effect (a Drop of 2 or More Points in PGA in 30% of Subjects): 39 (35, 42) Days
[2]; PGA score=1 or 2
  subjects who responded (PGA score=1 or 2) who would not return to severe disease within 6 months post treatment: > 83%
[2]; PGA=1 or PGA=2 at end of treatment (individually)
  difference between a 75 year old and 30 year old in the proportion of patients who did not relapse (PGA score≠5) 6 months after treatment: 10%
[2]; age 30 yr
  Proportion of Responders Who Did Not Relapse (PGA ≠ 5) 6 months Post Treatment: 79% and 78.7 (67, 90) %
  Proportion of Subjects with PGA = 1 at end of treatment who did not relapse (PGA ≠ 5) 6 Months Post Treatment: 77.7 (56, 92) %
  Proportion of Subjects with PGA = 2 at the end of treatment who did not relapse (PGA ≠ 5) 6 Months Post Treatment: 77.6 (62, 91) %
  Proportion of Subjects with PGA = 3 at the end of treatment who did not relapse (PGA ≠ 5) 6 Months Post Treatment: 76.8 (63, 89) %
[2]; age 50 yr
  Proportion of Responders Who Did Not Relapse (PGA ≠ 5) 6 months Post Treatment: 83.2 (73, 92) %
  Proportion of Subjects with PGA = 1 at end of treatment who did not relapse (PGA ≠ 5) 6 Months Post Treatment: 82.4 (65, 94) %
  Proportion of Subjects with PGA = 2 at the end of treatment who did not relapse (PGA ≠ 5) 6 Months Post Treatment: 82.6 (70, 93) %
  Proportion of Subjects with PGA = 3 at the end of treatment who did not relapse (PGA ≠ 5) 6 Months Post Treatment: 81.1 (68, 93) %
[2]; age 65 yr
  Proportion of Responders Who Did Not Relapse (PGA ≠ 5) 6 months Post Treatment: 87% and 86.6 (78, 94) %
  Proportion of Subjects with PGA = 1 at end of treatment who did not relapse (PGA ≠ 5) 6 Months Post Treatment: 86.0 (73, 95) %
  Proportion of Subjects with PGA = 2 at the end of treatment who did not relapse (PGA ≠ 5) 6 Months Post Treatment: 86.0 (74, 96) %
  Proportion of Subjects with PGA = 3 at the end of treatment who did not relapse (PGA ≠ 5) 6 Months Post Treatment: 84.3 (72, 95) %
[2]; age 75 yr
  Proportion of Responders Who Did Not Relapse (PGA ≠ 5) 6 months Post Treatment: 89% and 88.7 (81, 95) %
  Proportion of Subjects with PGA = 1 at end of treatment who did not relapse (PGA ≠ 5) 6 Months Post Treatment: 88.1 (76, 96) %
  Proportion of Subjects with PGA = 2 at the end of treatment who did not relapse (PGA ≠ 5) 6 Months Post Treatment: 88.0 (78, 96) %
  Proportion of Subjects with PGA = 3 at the end of treatment who did not relapse (PGA ≠ 5) 6 Months Post Treatment: 86.5 (74, 96) %
[2]; duration of treatment 4 weeks
  Proportion of Responders Who Did Not Relapse (PGA ≠ 5) 6 months Post Treatment: 79.2 (68, 89) %
  Proportion of Subjects with PGA = 1 Who Did Not Relapse (PGA ≠ 5) 6 Months Post Treatment: 79.8 (61, 93) %
  Proportion of Subjects with PGA = 2 Who Did Not Relapse (PGA ≠ 5) 6 Months Post Treatment: 77.9 (64, 91) %
  Proportion of Subjects with PGA = 3 Who Did Not Relapse (PGA ≠ 5) 6 Months Post Treatment: 76.4 (62, 88) %
[2]; duration of treatment 8 weeks
  Proportion of Responders Who Did Not Relapse (PGA ≠ 5) 6 months Post Treatment: 80.7 (70, 90) %
  Proportion of Subjects with PGA = 1 Who Did Not Relapse (PGA ≠ 5) 6 Months Post Treatment: 81.0 (63, 94) %
  Proportion of Subjects with PGA = 2 Who Did Not Relapse (PGA ≠ 5) 6 Months Post Treatment: 79.5 (67, 92) %
  Proportion of Subjects with PGA = 3 Who Did Not Relapse (PGA ≠ 5) 6 Months Post Treatment: 77.8 (65, 89) %
[2]; duration of treatment 12 weeks
  Proportion of Responders Who Did Not Relapse (PGA ≠ 5) 6 months Post Treatment: 82.3 (68, 95) %
  Proportion of Subjects with PGA = 1 Who Did Not Relapse (PGA ≠ 5) 6 Months Post Treatment: 81.9 (64, 94) %
  Proportion of Subjects with PGA = 2 Who Did Not Relapse (PGA ≠ 5) 6 Months Post Treatment: 80.8 (68, 92) %
  Proportion of Subjects with PGA = 3 Who Did Not Relapse (PGA ≠ 5) 6 Months Post Treatment: 79.1 (67, 90) %
[2]; duration of treatment 16 weeks
  Proportion of Responders Who Did Not Relapse (PGA ≠ 5) 6 months Post Treatment: 83.3 (72, 94) %
  Proportion of Subjects with PGA = 1 Who Did Not Relapse (PGA ≠ 5) 6 Months Post Treatment: 82.5 (66, 94) %
  Proportion of Subjects with PGA = 2 Who Did Not Relapse (PGA ≠ 5) 6 Months Post Treatment: 81.7 (69, 92) %
  Proportion of Subjects with PGA = 3 Who Did Not Relapse (PGA ≠ 5) 6 Months Post Treatment: 80.1 (67, 91) %
[2]; duration of treatment 20 weeks
  Proportion of Responders Who Did Not Relapse (PGA ≠ 5) 6 months Post Treatment: 83.9 (72, 94) %
  Proportion of Subjects with PGA = 1 Who Did Not Relapse (PGA ≠ 5) 6 Months Post Treatment: 83.1 (67, 94) %
  Proportion of Subjects with PGA = 2 Who Did Not Relapse (PGA ≠ 5) 6 Months Post Treatment: 82.6 (69, 94) %
  Proportion of Subjects with PGA = 3 Who Did Not Relapse (PGA ≠ 5) 6 Months Post Treatment: 80.9 (68, 92) %
[2]; duration of treatment 24 weeks
  Proportion of Responders Who Did Not Relapse (PGA ≠ 5) 6 months Post Treatment: 84.4 (75, 93) %
  Proportion of Subjects with PGA = 1 Who Did Not Relapse (PGA ≠ 5) 6 Months Post Treatment: 83.7 (67, 94) %
  Proportion of Subjects with PGA = 2 Who Did Not Relapse (PGA ≠ 5) 6 Months Post Treatment: 83.3 (70, 95) %
  Proportion of Subjects with PGA = 3 Who Did Not Relapse (PGA ≠ 5) 6 Months Post Treatment: 81.6 (68, 92) %
